Test results reported in patent US11596647B2, “Administration of synergistic amounts of modified citrus pectin and honokiol to treat inflammation and anti-oxidant needs” (ECONUGENICS INC, priority 2016, dated 2023).

Assay: Antioxidant activity, ABTS microplate assay (Trolox standard)
Type: biochemical
Details: FIG. 3; result in words
Excerpt: Since antioxidants neutralize the ROS, antioxidant activity of the nutraceutical would be of importance for product development. The principle underlying the antioxidant assay is formation of a ferryl myoglobin radical from metmyoglobin and hydrogen peroxide, which oxidizes ABTS (2,2′-azino-bis(3-ethylbenzthiazoline-6-sulfonic acid) to produce radical cation, ABTS+, a soluble chromogen that is green in color and can be determined spectrophotometrically at 405 nm. Antioxidants suppress the production of the radical cation in a concentration dependent manner and the color intensity decreases proportionally. Trolox, a water soluble vitamin E analog, is used as a control antioxidant for analyzing the antioxidant activity of other nutraceuticals/compounds. Microplate assay was used for the analysis of antioxidant activity with different products according to the procedure described in the Antioxidant assay kit (Sigma-Aldrich, St. Louis, Mo.). The relative antioxidant concentration (mM equivalent of Trolox standard) was calculated from the absorbance readings.

## C=CCc1ccc(O)c(-c2ccc(O)c(CC=C)c2)c1 [H, honokiol]
  antioxidant activity (relative ranking): least anti-oxidant activity
